Patent US20240067603A1, “CUBANYL BIGUANIDE COMPOUNDS” (REGENTS OF THE UNIVERSITY OF MINNESOTA, priority 2020, published 2024)

Assays:
CYP3A4 = CYP3A4 (Homo sapiens, UniProt P08684); design: purchased Corning; host or cells: insect cells (microsomes); details: inhibiting EET biosynthesis; background statement; cited from earlier work
[1] = Toxicity / tolerance of dosing in mice; type: in vivo
Procedure: Study 1 was performed by dose escalation of SC HBB from 4 mg/kg qd to 12 mg/kg qd with female CD-1 mice (Envigo) approximately 4-8 weeks of age. N=5 mice per HBB dose group, n=10 naïve control mice.
Study 2 two was performed by dose escalation of SC HBB from 16 mg/kg qd to 24 mg/kg qd with female BALB/c mice (Envigo) approximately 6-8 weeks of age. N=4 mice per HBB dose group, n=3 naïve control mice
Study 3 was performed by dose escalation of SC HBB from 16 mg/kg qd to 24 mg/kg qd with female C57BL/6 mice (CR) approximately 6-8 weeks of age. N=12 for HBB dose group, n=3 naïve control mice.

CYP3A4, sequence (P08684 whole entry): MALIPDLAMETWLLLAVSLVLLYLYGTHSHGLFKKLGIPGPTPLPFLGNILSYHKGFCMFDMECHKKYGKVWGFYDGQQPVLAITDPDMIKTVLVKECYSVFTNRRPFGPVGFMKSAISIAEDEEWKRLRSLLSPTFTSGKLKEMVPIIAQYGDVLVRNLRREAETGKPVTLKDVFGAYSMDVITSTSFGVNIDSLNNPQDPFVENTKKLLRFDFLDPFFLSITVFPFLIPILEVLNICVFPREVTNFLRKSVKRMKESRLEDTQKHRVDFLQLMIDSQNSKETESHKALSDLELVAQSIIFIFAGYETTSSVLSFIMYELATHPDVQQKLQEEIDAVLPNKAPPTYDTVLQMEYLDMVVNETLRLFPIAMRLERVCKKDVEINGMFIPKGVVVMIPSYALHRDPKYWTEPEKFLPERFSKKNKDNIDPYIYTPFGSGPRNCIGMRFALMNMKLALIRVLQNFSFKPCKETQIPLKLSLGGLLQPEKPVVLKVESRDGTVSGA

## CCCCCCNC(=N)NC(=N)NCc1ccccc1 [HBB, N1-hexyl-N5-benzyl-biguanide]
CYP3A4
  fold more potent than metformin: 100 fold
[1]; SC 16 to 24 mg/kg qd, female BALB/c mice, FIG. 21
  tolerance of daily SC dosing above 12 mg/kg: not as well tolerated
[1]; daily SC 4 to 12 mg/kg over approximately 2 months, female CD-1 mice, FIG. 20
  tolerance of dose escalation: well tolerated
[1]; female, CD-1 (Study 1), BALB/c (Study 2), C57BL/6 (Study 3), mouse, in vivo, sc, daily
  MTD: 12 mg/kg
[1]; mice
  effect on splenic or lymph node CD4 or CD8 T cells: no observed effect
[1]; mouse, in vivo
  toxicity in mice: acceptable toxicity
[1]; mouse, in vivo, ip, 4 times per week, no more than 2 consecutive days
  MTD: 6 mg/kg
[1]; study day 3 to day 26, female C57BL/6 mice, FIG. 22
  tolerance of daily SC dosing: well tolerated
